Where two headings read alike, the source gives them in different places.
Experiments:
Experiment in all cases: Microculture tetrazolium assay
Type in all cases: cell-based
[1] = tested on: SKOV3; settings: read-out: IC50
[2] = tested on: SKVLB; settings: for VLB/OV3: IC50 ratio SKVLB/SKOV3; for IC50: SKVLB
[3] = tested on: T47D; settings: read-out: IC50
[4] = tested on: LOX; settings: read-out: IC50
[5] = tested on: HT29; settings: read-out: IC50

COCOCC(=O)C1CC2=C(CO1)C(=O)c1cc3ccccc3c(O)c1C2=O (stereo not drawn) [BCH-697, 3-(2-methoxymethoxy)aceto-6-hydroxy-1,2,3,4-tetrahydro-(2-oxygen)napthacene-5,12-dione]
IC50 ([1]; Homo sapiens, SK-OV-3, SKOV3): 15.5 µM
VLB/OV3 [2]: 0.68
IC50 [2]: 10.6 µM
IC50 ([3]; Homo sapiens): 13 µM
IC50 [4]: 12.6 µM
IC50 ([5]; Homo sapiens, HT-29, HT29): 6.04 µM

C=CC1CC2=C(C(=O)c3cc4ccccc4c(OC(C)=O)c3C2=O)C(OC)O1 (stereo not drawn) [BCH-716, 6-acetoxy-1-methoxy-1,2,3,4-tetrahydro-3-vinyl-(2-oxygen)naphthacene-5,12-dione]
IC50 ([1]; Homo sapiens, SK-OV-3, SKOV3): > 100 µM
IC50 ([2]; read-out: IC50): 85.5 µM
IC50 ([3]; Homo sapiens): 70.3 µM
IC50 [4]: 41.6 µM
IC50 ([5]; Homo sapiens, HT-29, HT29): > 100 µM

CC(=O)[C@H]1CC2=C(C(=O)c3cc4ccccc4c(O)c3C2=O)[C@H](O[C@H]2C[C@H](NC(=O)C(F)(F)F)[C@H](O)[C@H](C)O2)O1 [BCH-724, (1S',1S,3R)-Methyl-(6-hydroxy-1-(3'-trifluoroacyldaunosamine)-5,12-dioxo-3,4,5,12-tetrahydroanthraceno[2,3-C]pyran-3-yl) ketone]
IC50 ([1]; Homo sapiens, SK-OV-3, SKOV3): 3.15 µM
VLB/OV3 [2]: 0.52
IC50 ([2]; read-out: IC50): 1.64 µM
IC50 ([3]; Homo sapiens): 3.89 µM
IC50 [4]: 1.49 µM
IC50 ([5]; Homo sapiens, HT-29, HT29): 0.727 µM

COCOCC(=O)C1CC2=C(C(=O)c3cc4ccccc4c(O)c3C2=O)C(O[C@H]2C[C@H](NC(=O)C(F)(F)F)[C@H](OC(=O)c3ccc([N+](=O)[O-])cc3)[C@H](C)O2)O1 (stereo partly drawn) [BCH-732]
IC50 ([1]; Homo sapiens, SK-OV-3, SKOV3): 38.5 µM
IC50 ([2]; read-out: IC50): 100 µM
IC50 ([3]; Homo sapiens): 100 µM
IC50 [4]: 48 µM
IC50 ([5]; Homo sapiens, HT-29, HT29): 38.4 µM

CC(=O)OCC1(C2CC3=C(C(=O)c4c(cc5ccccc5c4OC(C)=O)C3=O)C(O)O2)OCCCO1 (stereo not drawn) [BCH-733]
IC50 ([1]; SKOV3): 4.3 µM
VLB/OV3 [2]: 1.62
IC50 ([2]; read-out: IC50): 6.96 µM
IC50 [3]: 5.51 µM
IC50 [4]: 6.07 µM
IC50 ([5]; HT29): 2.01 µM

CC(=O)OCC1(C2CC3=C(C(=O)c4cc5ccccc5c(OC(C)=O)c4C3=O)C(O)O2)OCCCO1 (stereo not drawn) [BCH-734]
IC50 ([1]; SKOV3): 8.82 µM
VLB/OV3 [2]: 1.02
IC50 ([2]; read-out: IC50): 8.97 µM
IC50 [3]: 6.41 µM
IC50 [4]: 9.76 µM
IC50 ([5]; HT29): 5.77 µM

CC(=O)OCC1(C2CC3=C(C(=O)c4c(cc5ccccc5c4O)C3=O)C(O[C@H]3C[C@H](NC(=O)C(F)(F)F)[C@H](O)[C@H](C)O3)O2)OCCCO1 (stereo partly drawn) [BCH-748]
IC50 ([1]; Homo sapiens, SK-OV-3, SKOV3): 4.9 µM
VLB/OV3 [2]: 1.72
IC50 ([2]; read-out: IC50): 8.41 µM
IC50 ([3]; Homo sapiens): 7.73 µM
IC50 [4]: 10.1 µM
IC50 ([5]; Homo sapiens, HT-29, HT29): 5.99 µM

CC1(C2CC3=C(CO2)C(=O)c2c(cc4ccccc4c2O)C3=O)OCCCO1 (stereo not drawn) [BCH-1108]
IC50 ([1]; Homo sapiens, SK-OV-3, SKOV3): 1.5 µM
VLB/OV3 [2]: 1.5
IC50 ([2]; read-out: IC50): 2.31 µM
IC50 ([3]; Homo sapiens): 3.83 µM
IC50 [4]: 100 µM
IC50 ([5]; Homo sapiens, HT-29, HT29): 2.8 µM

CC1(C2CC3=C(CO2)C(=O)c2cc4ccccc4c(O)c2C3=O)OCCCO1 (stereo not drawn) [BCH-1109]
IC50 ([1]; Homo sapiens, SK-OV-3, SKOV3): 62.3 µM
IC50 ([2]; read-out: IC50): 100 µM
IC50 ([3]; Homo sapiens): 47.1 µM
IC50 [4]: 76 µM
IC50 ([5]; Homo sapiens, HT-29, HT29): 62.6 µM

CC(=O)Oc1c2c(c(O)c3ccccc13)C(=O)C1=C(CC(C3(C)OCCCO3)OC1)C2=O (stereo not drawn) [BCH-1110]
IC50 ([1]; Homo sapiens, SK-OV-3, SKOV3): 100 µM
IC50 ([2]; read-out: IC50): 100 µM
IC50 ([3]; Homo sapiens): 100 µM
IC50 [4]: 100 µM
IC50 ([5]; Homo sapiens, HT-29, HT29): 28.9 µM

CC(=O)Oc1c2c(c(O)c3ccccc13)C(=O)C1=C(COC(C3(C)OCCCO3)C1)C2=O (stereo not drawn) [BCH-1111]
IC50 ([1]; Homo sapiens, SK-OV-3, SKOV3): 100 µM
IC50 ([2]; read-out: IC50): 56.3 µM
IC50 ([3]; Homo sapiens): 100 µM
IC50 [4]: 98.5 µM
IC50 ([5]; Homo sapiens, HT-29, HT29): 100 µM

CC1(C2CC3=C(CO2)C(=O)c2c(cc4ccccc4c2O)C3=O)OCCO1 (stereo not drawn) [BCH-1112]
IC50 ([1]; Homo sapiens, SK-OV-3, SKOV3): 5.16 µM
VLB/OV3 [2]: 0.55
IC50 ([2]; read-out: IC50): 2.83 µM
IC50 ([3]; Homo sapiens): 9.09 µM
IC50 [4]: 5.32 µM
IC50 ([5]; Homo sapiens, HT-29, HT29): 5.47 µM

CC1(C2Cc3c(O)c4c(c(O)c3CO2)C(=O)c2ccccc2C4=O)OCCO1 (stereo not drawn) [BCH-1114]
IC50 ([1]; Homo sapiens, SK-OV-3, SKOV3): 64.6 µM
IC50 ([2]; read-out: IC50): 100 µM
IC50 ([3]; Homo sapiens): 100 µM
IC50 [4]: 100 µM
IC50 ([5]; Homo sapiens, HT-29, HT29): 68.9 µM

CC1(C2Cc3c(O)c4c(c(O)c3CO2)C(=O)c2ccccc2C4=O)OCCCO1 (stereo not drawn) [BCH-1115]
IC50 ([1]; Homo sapiens, SK-OV-3, SKOV3): 9.28 µM
VLB/OV3 [2]: 1.24
IC50 ([2]; read-out: IC50): 11.5 µM
IC50 ([3]; Homo sapiens): 12.6 µM
IC50 [4]: 7.02 µM
IC50 ([5]; Homo sapiens, HT-29, HT29): 6.25 µM

CC(=O)C1Cc2c(O)c3c(c(O)c2C(O)O1)C(=O)c1ccccc1C3=O (stereo not drawn) [BCH-1116]
IC50 ([1]; Homo sapiens, SK-OV-3, SKOV3): 26.1 µM
VLB/OV3 [2]: 0.82
IC50 ([2]; read-out: IC50): 21.3 µM
IC50 ([3]; Homo sapiens): 11.1 µM
IC50 [4]: 31.3 µM
IC50 ([5]; Homo sapiens, HT-29, HT29): 7.6 µM

Source: patent US5593970A, “Heterocyclic anthracycline analogs” (priority 1994, dated 1997)
